Measurements from the NIST ThermoML archive (doi:10.1016/j.jct.2016.02.016).

Experiment: xn = mol fraction of the nth substance listed
Conditions: 100 kPa, Liquid; for mass density: Vibrating tube method; for speed of sound: Frequency=3 MHz, Sing-around technique in a fixed-path interferometer

CCCC(C)=O [pentan-2-one] + CN(C)C=O
Conditions | mass density [kg/m3] | speed of sound [m/s]
293.15 K, x2 = 0.5466 | 875.212 | –
293.15 K, x2 = 0.5987 | 882.775 | –
293.15 K, x2 = 0.6581 | 891.66 | –
293.15 K, x2 = 0.7528 | 906.494 | –
293.15 K, x2 = 0.8029 | 914.576 | –
293.15 K, x2 = 0.8461 | 921.84 | –
293.15 K, x2 = 0.9017 | 931.277 | –
293.15 K, x2 = 0.9496 | 939.704 | –
298.15 K, x2 = 0 | 801.99 | 1211.9
298.15 K, x2 = 0.0568 | 808.267 | 1222.8
298.15 K, x2 = 0.1 | 813.221 | 1231.3
298.15 K, x2 = 0.1526 | 819.25 | 1241.7
298.15 K, x2 = 0.1895 | 823.621 | 1249.2
298.15 K, x2 = 0.2545 | 831.549 | 1262.9
298.15 K, x2 = 0.3298 | 841.051 | 1279.3
298.15 K, x2 = 0.3502 | 843.666 | 1283.9
298.15 K, x2 = 0.3956 | 849.557 | 1294
298.15 K, x2 = 0.4567 | 857.796 | 1308.5
298.15 K, x2 = 0.5084 | 865.012 | 1320.8
298.15 K, x2 = 0.557 | 871.899 | 1332.9
298.15 K, x2 = 0.6022 | 878.552 | 1344.4
298.15 K, x2 = 0.6448 | 884.967 | 1355.5
298.15 K, x2 = 0.7117 | 895.208 | 1373.4
298.15 K, x2 = 0.7504 | 901.333 | 1384
298.15 K, x2 = 0.8027 | 909.784 | 1398.7
298.15 K, x2 = 0.849 | 917.57 | 1412.1
298.15 K, x2 = 0.9019 | 926.592 | 1427.6
298.15 K, x2 = 0.9429 | 933.872 | 1440.1
303.15 K, x2 = 0 | 796.73 | 1191.7
303.15 K, x2 = 0.0581 | 803.204 | 1203
303.15 K, x2 = 0.1088 | 808.974 | 1212.9
303.15 K, x2 = 0.16 | 815.007 | 1223.3
303.15 K, x2 = 0.2044 | 820.314 | 1232.5
303.15 K, x2 = 0.262 | 827.319 | 1244.6
303.15 K, x2 = 0.3046 | 832.689 | 1253.9
303.15 K, x2 = 0.3506 | 838.634 | 1264.1
303.15 K, x2 = 0.4014 | 845.319 | 1275.7
303.15 K, x2 = 0.482 | 856.31 | 1294.7
303.15 K, x2 = 0.5006 | 858.884 | 1299.1
303.15 K, x2 = 0.5407 | 864.591 | 1309
303.15 K, x2 = 0.5989 | 873.078 | 1323.9
303.15 K, x2 = 0.6467 | 880.175 | 1336.3
303.15 K, x2 = 0.6949 | 887.598 | 1349.2
303.15 K, x2 = 0.7518 | 896.616 | 1364.8
303.15 K, x2 = 0.8007 | 904.558 | 1378.6
303.15 K, x2 = 0.8527 | 913.274 | 1393.6
303.15 K, x2 = 0.8991 | 921.307 | 1407.5
303.15 K, x2 = 0.9485 | 929.946 | 1422.2
